According to patent US7989474B2, “Use of Lck inhibitors for treatment of immunologic diseases” (Boehringer Ingelheim Pharma GmbH & Co. KG, priority 2002, dated 2011):

Molecular target: T1, lck enzyme (Homo sapiens, UniProt P06239)
T1 construct: The lck enzyme comprises the entire lck molecule except the first nine amino acids which are replaced by an His-tag; His-tag (N); made in house
Experiment: Non-Radioactive Kinase Assay (lck)
Type: biochemical
Conditions: mean values of two independent experiments
Protocol: The lck enzyme comprises the entire lck molecule except the first nine amino acids which are replaced by an His-tag for purification purposes. The enzyme is affinity purified.
The reaction is started by the addition of 50 μl 500 μM ATP (in 10 mM MgAc2) and is performed at room temperature.
The solution is incubated for one hour at room temperature and the supernatant discarded. The well is washed twice with 300 μl PBS.

T1 sequence (P06239 10-509 limits assumed, species assumed): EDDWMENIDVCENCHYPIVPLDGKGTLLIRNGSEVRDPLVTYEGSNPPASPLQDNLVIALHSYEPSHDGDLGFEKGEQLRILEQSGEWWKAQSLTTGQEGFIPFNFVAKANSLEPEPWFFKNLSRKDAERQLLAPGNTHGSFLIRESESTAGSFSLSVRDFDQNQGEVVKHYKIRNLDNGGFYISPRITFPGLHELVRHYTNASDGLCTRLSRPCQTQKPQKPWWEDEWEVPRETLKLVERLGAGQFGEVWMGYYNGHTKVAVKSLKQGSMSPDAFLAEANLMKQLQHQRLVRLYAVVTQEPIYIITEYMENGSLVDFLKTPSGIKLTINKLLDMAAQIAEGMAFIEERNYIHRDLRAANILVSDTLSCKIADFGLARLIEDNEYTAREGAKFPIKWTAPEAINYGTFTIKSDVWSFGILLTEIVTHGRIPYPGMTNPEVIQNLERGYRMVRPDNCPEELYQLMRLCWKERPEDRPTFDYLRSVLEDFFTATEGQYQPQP

COC(=O)c1ccc2c(c1)NC(=O)/C2=C(\Nc1ccc(N(C)C(=O)CN(C)C)cc1)c1ccccc1 [(AI), (Z)-3-(1-(4-(N-(dimethylaminomethylcarbonyl)-N-methyl-amino)-phenylamino)-1-phenyl-methylene)-6-methoxycarbonyl-2-indolinone]
IC50: 36 nM
